In PMC4708017, “Antiplasmodial activity of iron(II) and ruthenium(II) organometallic complexes against Plasmodium falciparum blood parasites” (Memórias do Instituto Oswaldo Cruz, 2015):
Like-named read-outs stand apart in the source and are kept apart here.

Columns and labels:
[1] = test system: HepG2 human hepatoma cells
Method: The SI was calculated in order to give an insight into the therapeutic index of the molecules, i.e., how far the toxic concentration is from the therapeutic one.

[2] = test system: Plasmodium falciparum blood forms (W2 clone, chloroquine-resistant); experiment: in vitro antiplasmodial activity, anti-histidine-rich protein II assay; type: cell-based
Method: Continuous culture of P. falciparum and in vitro tests of drug activity - Blood-stage P. falciparum parasites, W2 clone CQ-resistant ([Oduola et al. 1988]), maintained according to [Trager & Jensen (1976)], were used in the drug activity tests after sorbitol-synchronisation ([Lambros & Vanderberg 1979)]. The antiplasmodial activity of the compounds was determined relative to control parasites kept in culture medium only ([Rieckmann et al. 1978)] through the anti-histidine-rich protein II assay ([Noedl et al. 2002)]. The IC50 of parasite growth was determined through sigmoidal dose-response curves built by curve-fitting software (Microcal Origin Software v.5.0). […]

[3] = octanol/water partition coefficient (log P o/w) by HPLC; type: physicochemical; details: determined for the first time in this paper
Source text: Measurement of lipophilicity data - Measurements of the octanol/water partition coefficient (log P o/w) were made by the HPLC technique according to a method described previously ([Minick et al. 1988], [Pomper et al. 1990]). Measurement of the chromatographic capacity factors (k) for each molecule was done at various concentrations in the range of 95-75% methanol containing 0.25% (v/v) 1-octanol, and an aqueous phase consisting of 0.15% (v/v) n-decylamine in the buffering agent 3-morpholinopropane-1-sulfonic acid (MOPS) prepared in 1-octanol saturated water adjusted to pH 7.4. These capacity factors (k’) are extrapolated to 100% of the aqueous component given the value of k’. The logP o/w is obtained by the formula logP o/w = 0.13418 + 0.98452 logk’.

[4] = P. falciparum W2 clone, CQ-resistant, blood-stage, anti-HRPII assay, read-out: IC50 Pf

Compound | cytotoxicity class (by MLD50) [1] | IC50 [2, 4] [µM] | log P [3] | antiplasmodial activity class ([2]; P. falciparum W2, class based on IC50) | IC50 ([2]; Plasmodium falciparum, W2, P. falciparum W2 clone, CQ-resistant, blood-stage, anti-HRPII assay, read-out: IC50 Pf) [µM] | IC50 ([2]; Plasmodium falciparum, W2, read-out: IC50 Pf) [µM]
1-[(4-(3-dimethylaminopropoxy)phenyl-phenyl)methylidene][3]ferrocenophane [Compound 8] | toxic (those having MLD50< 100 mM were considered toxic) | 5.9 ± 1.6 | 3.46 |  |  | 
CCC(=C(c1ccccc1)c1ccccc1)c1ccccc1 [Compound 1] |  | 83 ± 5 |  | inactive | > 60 | 
CCN(CC)CCCC(C)Nc1ccnc2cc(Cl)ccc12 (stereo not shown) [CQ, chloroquine, reference compound] |  |  |  |  |  | 0.1 ± 0.02
